# In US7781393B2, “Methods for inhibiting tumor cell growth” (Dana-Farber Cancer Institute, Inc., priority 2004, dated 2010):
# What was measured:
# Assay type in all cases: cell-based, human
# [1] = system: MM cells; test: Gene expression and proteomic profiling of IGF-1R inhibition; conditions: expression profiling, proteomic analyses, confirmatory assays
# Description: Subsequent analysis of scanned image output files were analyzed with Affymetrix GeneChip Microarray Analysis Suite 5.0 software (Affymetrix), normalized and analyzed by hierarchical clustering, functional clustering and relevance network algorithms, as in previous studies. High-throughput global proteomic analysis of the signaling state of IGF-1R-inhibitor-treated MM cells was performed by multiplex-immunoblotting arrays using the KPKS-1.0 and KPSS-1.0 platforms, as previously described (Mitsiades C S et al. Semin Oncol. April 2003; 30(2): 156-60 and Mitsiades N et al. Blood. Mar. 15, 2003; 101(6): 2377-80).
# Total RNA was extracted and purified with the Qiagen RNeasy kit (Qiagen, San Diego, Calif.). Five micrograms of total RNA was used in the first-strand cDNA synthesis with T7-d(T)24 primer ([…]-(dT)24) (SEQ ID NO: 1) and Superscript II (GIBCO-BRL, Rockville, Md.). The second-strand cDNA synthesis was carried out at 16° C. by adding Escherichia coli DNA ligase, E. coli DNA polymerase I, and RNase H to the reaction, followed by T4 DNA polymerase to blunt the ends of newly synthesized cDNA. The cDNA was purified through phenol/chloroform and ethanol precipitation. […] Scanned image output files were visually examined for major chip defects and hybridization artifacts and then analyzed with Affymetrix GeneChip® (array) Microarray Analysis Suite 5.0 software (Affymetrix). […]
# [2] = system: PC-3 prostate cancer cells; test: MTT assay of responsiveness to IL-6; conditions: co-treatment 500 nM, serum, 72 hours
# Description: (§1) Cell survival of IGF-1R inhibitor-treated cells was examined using the 3-(4,5-Dimethylthiazol-2-yl)-2,5-Diphenyltetrazolium Bromide (MTT) calorimetric assay. […] At the end of each treatment, cells were incubated with 1 mg/ml MTT for 4 hours at 37° C.; a mixture of isopropanol and 1N HCl (23:2, v/v) was then added under vigorous pipetting to dissolve the formazan crystals. Dye absorbance (A) in viable cells was measured at 570 nm, with 630 nm as a reference wavelength. Cell survival was estimated as a percentage of the value of untreated controls. All experiments were repeated at least three times, and each experimental condition was repeated at least in quadruplicate wells in each experiment.
# [3] = system: INA-6 MM cells; test: MTT assay of responsiveness to IL-6; conditions: co-treatment 500 nM, serum, 72 hours
# Description: as §1
smiles,measurement,setting,value
"Nc1ncnc2c1c(-c1cccc(OCc3ccccc3)c1)cn2[C@H]1C[C@H](CN2CCCC2)C1 [ADW-742, trans-5-(3-benzyloxy-phenyl)-7-(3-pyrrolidin-1-ylmethyl-cyclobutyl)-7H-pyrrolo[2,3-d]pyrimidin-4-ylamine]",proliferative/anti-apoptotic molecular events associated with exposure to IGF-1 or serum,[1],suppressed
same,responsiveness to IL-6,[2],abrogated
same,responsiveness to IL-6,[3],abrogated
